Source: the supplement of paper PMC10307832

Assays:
Experiment in all cases: relative viability (nuclei count vs DMSO), 5 days (fraction); higher = more cells survive
[1] = compound: C[C@@]1(C(=O)Nc2ccc(F)nc2)CCCN1c1nc(Nc2cc(C3CC3)n[nH]2)c2cccn2n1 + Cc1nc(Nc2ncc(C(=O)Nc3c(C)cccc3Cl)s2)cc(N2CCN(CCO)CC2)n1 [Dasatinib] (partner 0.075 µM)
Summary of the method: (§1)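 Dosing by pin tool came one day after lung cancer cell lines were seeded in 1536-well plates, using either one drug or a fixed anchor-drug dose plus five library-drug doses (not always all listed) in √10 steps. After 5 days, nuclei were counted on 4× images. Relative viability is treated-well nuclei count divided by vehicle-well nuclei count, and values are medians of duplicate plates.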

Motesanib + Decitabine = compound: CC1(C)CNc2cc(NC(=O)c3cccnc3NCc3ccncc3)ccc21 [Motesanib] + Nc1ncn([C@H]2C[C@H](O)[C@@H](CO)O2)c(=O)n1 [Decitabine] (partner 2 µM)
Summary of the method: as §1

[2] = compound: C[C@@]1(C(=O)Nc2ccc(F)nc2)CCCN1c1nc(Nc2cc(C3CC3)n[nH]2)c2cccn2n1 + CCNC(=O)c1noc(-c2cc(C(C)C)c(O)cc2O)c1-c1ccc(CN2CCOCC2)cc1 [Luminespib] (partner 0.01 µM)
Summary of the method: as §1

Motesanib + Bortezomib = compound: CC1(C)CNc2cc(NC(=O)c3cccnc3NCc3ccncc3)ccc21 [Motesanib] + CC(C)C[C@H](NC(=O)[C@H](Cc1ccccc1)NC(=O)c1cnccn1)B(O)O [Bortezomib] (partner 0.002 µM)
Summary of the method: as §1

Cell Line	relative viability ([1]; first compound 0.04 µM)	relative viability ([1]; first compound 0.1265 µM)	relative viability ([1]; first compound 0.4 µM)	relative viability ([1]; first compound 1.265 µM)	relative viability (Motesanib + Decitabine; first compound 0.01 µM)	relative viability (Motesanib + Decitabine; first compound 0.03162 µM)	relative viability (Motesanib + Decitabine; first compound 0.1 µM)	relative viability (Motesanib + Decitabine; first compound 0.3162 µM)	relative viability (Motesanib + Decitabine; first compound 1 µM)	relative viability ([2]; first compound 0.04 µM)	relative viability ([2]; first compound 0.1265 µM)	relative viability ([2]; first compound 0.4 µM)	relative viability ([2]; first compound 1.265 µM)	relative viability (Motesanib + Bortezomib; first compound 0.01 µM)	relative viability (Motesanib + Bortezomib; first compound 0.03162 µM)	relative viability (Motesanib + Bortezomib; first compound 0.1 µM)	relative viability (Motesanib + Bortezomib; first compound 0.3162 µM)	relative viability (Motesanib + Bortezomib; first compound 1 µM)
NCI-H460	0.258	0.101	0.0641	0.0353	0.531	0.453	0.467	0.568	0.543	0.0318	0.0246	0.0368	0.0359	1.09	1.18	1.08	1.25	1.1
NCI-H520	0.207	0.176	0.176	0.229	0.554	0.538	0.626	0.613	0.669	0.214	0.242	0.267	0.211	0.482	0.747	0.432	0.653	0.693
NCI-H596	0.552	0.439	0.415	0.372	1.1	1.08	1.12	1.15	1.16	0.819	0.885	0.88	1.17	0.995	0.872		1.18	0.995
NCI-H647	0.361	0.0884	0.105	0.214	0.43	0.441	0.488	0.542	0.535	0.152	0.245	0.181	0.164	0.984	1.01	0.974	1.06	0.883
NCI-H650	0.404	0.283	0.321	0.29	0.31	0.319	0.312	0.382	0.529	0.797	0.426	0.536	0.499	0.805	0.954	0.83	1.02	0.647
NCI-H661	0.762	0.841	0.669	0.517	0.486	0.528	0.556	0.631	0.625	0.973	1.06	1.05	1.02	0.795	0.767	0.765	0.849	1.04
NCI-H727	0.278	0.182	0.273	0.229	0.861	0.927	0.929	0.804	0.937	0.34	0.319	0.249	0.249	0.735	0.926	0.883	0.919	0.818
NCI-H838	0.299	0.198	0.187	0.213	0.484	0.49	0.541	0.572	0.582	0.296	0.291	0.183	0.338	0.887	0.957	0.758	0.965	0.891
NCI-H1355	0.545	0.488	0.434	0.421	0.4	0.413	0.395	0.415	0.495	0.669	0.517	0.577	0.696	1.2	1.33	1.22	1.35	1.18
